Holding throughout (assay type): biochemical
In one assay the target is T1, PI3K β (Homo sapiens, UniProt P42338).
T1 construct: purchased Upstate
Nature of the assay: PI 3-Kinase HTRF inhibition assay, PI3K β. As to conditions: in vitro. Here is the method: (§1) Commercial kits or systems for assaying PI3-K activities are available. The commercially available kits or systems can be used to screen for inhibitors and/or agonists of PI3-Ks including but not limited to PI 3-Kinase α, β, δ, and γ. An exemplary system is PI 3-Kinase (human) HTRF™ Assay from Upstate. […] Briefly, the assay is a time resolved FRET assay that indirectly measures PIP3 product formed by the activity of a PI3-K. The kinase reaction is performed in a microtitre plate (e.g., a 384 well microtitre plate). The total reaction volume is approximately 20 ul per well. In the first step, each well receives 2 ul of test compound in 20% dimethylsulphoxide resulting in a 2% DMSO final concentration. Next, approximately 14.5 ul of a kinase/PIP2 mixture (diluted in 1× reaction buffer) is added per well for a final concentration of 0.25-0.3 ug/ml kinase and 10 μM PIP2. The plate is scaled and incubated for 15 minutes at room temperature. To start the reaction, 3.5 ul of ATP (diluted in 1× reaction buffer) is added per well for a final concentration of 10 μM ATP. The plate is sealed and incubated for 1 hour at room temperature. The reaction is stopped by adding 5 ul of Stop Solution per well and then 5 ul of Detection Mix is added per well. The plate is sealed, incubated for 1 hour at room temperature, and then read on an appropriate plate reader. Data is analyzed and IC50s are generated using GraphPad Prism 5. For PI3K α, β, δ, and γ, the nM concentration of inhibitor to reach IC50 is provided. […] Similar assays, and others known in the art, can be used to measure the percent inhibition of other kinases, including but not limited to PI3K class II kinases, phosphoinositide 4 kinases (PI4K), and phosphoinositide 5 kinases (PI5K).

The next assay deals with T2, PI3K α (Homo sapiens, UniProt P42336).
T2 construct: purchased Upstate
T2 sequence (P42336 whole entry): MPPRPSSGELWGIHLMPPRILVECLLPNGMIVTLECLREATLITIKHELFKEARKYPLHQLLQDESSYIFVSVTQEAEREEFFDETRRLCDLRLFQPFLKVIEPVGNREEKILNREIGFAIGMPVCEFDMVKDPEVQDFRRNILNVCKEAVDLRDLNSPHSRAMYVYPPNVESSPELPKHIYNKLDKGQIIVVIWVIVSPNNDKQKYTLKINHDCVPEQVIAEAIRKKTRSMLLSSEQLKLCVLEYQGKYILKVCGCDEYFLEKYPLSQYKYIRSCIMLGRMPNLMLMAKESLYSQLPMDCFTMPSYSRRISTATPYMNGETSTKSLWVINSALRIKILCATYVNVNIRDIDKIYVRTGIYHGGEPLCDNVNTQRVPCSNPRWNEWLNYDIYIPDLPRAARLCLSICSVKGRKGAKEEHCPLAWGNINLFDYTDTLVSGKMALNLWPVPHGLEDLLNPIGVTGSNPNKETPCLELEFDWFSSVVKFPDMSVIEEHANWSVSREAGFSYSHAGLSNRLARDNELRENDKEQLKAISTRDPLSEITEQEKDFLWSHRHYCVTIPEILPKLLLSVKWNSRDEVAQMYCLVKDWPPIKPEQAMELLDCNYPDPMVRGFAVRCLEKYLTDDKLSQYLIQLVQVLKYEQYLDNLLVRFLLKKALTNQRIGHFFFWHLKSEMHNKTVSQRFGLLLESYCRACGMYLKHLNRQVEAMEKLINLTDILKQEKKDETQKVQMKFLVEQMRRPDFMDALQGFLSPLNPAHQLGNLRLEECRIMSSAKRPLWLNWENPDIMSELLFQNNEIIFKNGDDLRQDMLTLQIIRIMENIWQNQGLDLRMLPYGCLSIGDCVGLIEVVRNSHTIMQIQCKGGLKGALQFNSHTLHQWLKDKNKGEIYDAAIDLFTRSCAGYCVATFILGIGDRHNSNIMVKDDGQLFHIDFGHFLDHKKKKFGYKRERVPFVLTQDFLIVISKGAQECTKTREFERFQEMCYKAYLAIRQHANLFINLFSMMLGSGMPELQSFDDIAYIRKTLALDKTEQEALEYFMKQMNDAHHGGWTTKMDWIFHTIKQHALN
T2 sequence (P27986 whole entry partner): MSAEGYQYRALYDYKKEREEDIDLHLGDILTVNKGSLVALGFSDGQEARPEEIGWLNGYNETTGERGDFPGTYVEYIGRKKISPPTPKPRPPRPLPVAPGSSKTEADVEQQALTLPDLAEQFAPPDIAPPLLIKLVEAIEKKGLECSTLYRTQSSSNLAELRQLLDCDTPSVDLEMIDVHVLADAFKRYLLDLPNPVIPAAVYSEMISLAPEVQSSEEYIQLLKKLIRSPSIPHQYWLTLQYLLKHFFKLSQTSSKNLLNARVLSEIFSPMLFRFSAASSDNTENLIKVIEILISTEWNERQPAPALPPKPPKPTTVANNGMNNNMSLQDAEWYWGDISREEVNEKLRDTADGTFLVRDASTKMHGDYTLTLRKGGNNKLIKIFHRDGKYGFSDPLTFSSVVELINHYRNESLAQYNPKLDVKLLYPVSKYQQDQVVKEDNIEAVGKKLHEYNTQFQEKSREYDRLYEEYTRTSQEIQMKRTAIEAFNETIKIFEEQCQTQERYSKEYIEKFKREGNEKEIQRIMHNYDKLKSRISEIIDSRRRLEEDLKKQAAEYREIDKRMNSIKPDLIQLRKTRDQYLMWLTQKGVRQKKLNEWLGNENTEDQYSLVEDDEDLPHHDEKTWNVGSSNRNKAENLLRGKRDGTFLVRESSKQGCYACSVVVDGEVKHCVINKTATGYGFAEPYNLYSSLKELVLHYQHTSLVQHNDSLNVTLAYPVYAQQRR
Description: PI 3-Kinase HTRF inhibition assay, PI3K α. As to conditions: in vitro; read-out: PI3K α IC50. How it is done:
as §1

The target in another assay is T3, PI3K γ (Homo sapiens, UniProt P48736).
T3 construct: purchased Upstate
T3 sequence (P48736 whole entry): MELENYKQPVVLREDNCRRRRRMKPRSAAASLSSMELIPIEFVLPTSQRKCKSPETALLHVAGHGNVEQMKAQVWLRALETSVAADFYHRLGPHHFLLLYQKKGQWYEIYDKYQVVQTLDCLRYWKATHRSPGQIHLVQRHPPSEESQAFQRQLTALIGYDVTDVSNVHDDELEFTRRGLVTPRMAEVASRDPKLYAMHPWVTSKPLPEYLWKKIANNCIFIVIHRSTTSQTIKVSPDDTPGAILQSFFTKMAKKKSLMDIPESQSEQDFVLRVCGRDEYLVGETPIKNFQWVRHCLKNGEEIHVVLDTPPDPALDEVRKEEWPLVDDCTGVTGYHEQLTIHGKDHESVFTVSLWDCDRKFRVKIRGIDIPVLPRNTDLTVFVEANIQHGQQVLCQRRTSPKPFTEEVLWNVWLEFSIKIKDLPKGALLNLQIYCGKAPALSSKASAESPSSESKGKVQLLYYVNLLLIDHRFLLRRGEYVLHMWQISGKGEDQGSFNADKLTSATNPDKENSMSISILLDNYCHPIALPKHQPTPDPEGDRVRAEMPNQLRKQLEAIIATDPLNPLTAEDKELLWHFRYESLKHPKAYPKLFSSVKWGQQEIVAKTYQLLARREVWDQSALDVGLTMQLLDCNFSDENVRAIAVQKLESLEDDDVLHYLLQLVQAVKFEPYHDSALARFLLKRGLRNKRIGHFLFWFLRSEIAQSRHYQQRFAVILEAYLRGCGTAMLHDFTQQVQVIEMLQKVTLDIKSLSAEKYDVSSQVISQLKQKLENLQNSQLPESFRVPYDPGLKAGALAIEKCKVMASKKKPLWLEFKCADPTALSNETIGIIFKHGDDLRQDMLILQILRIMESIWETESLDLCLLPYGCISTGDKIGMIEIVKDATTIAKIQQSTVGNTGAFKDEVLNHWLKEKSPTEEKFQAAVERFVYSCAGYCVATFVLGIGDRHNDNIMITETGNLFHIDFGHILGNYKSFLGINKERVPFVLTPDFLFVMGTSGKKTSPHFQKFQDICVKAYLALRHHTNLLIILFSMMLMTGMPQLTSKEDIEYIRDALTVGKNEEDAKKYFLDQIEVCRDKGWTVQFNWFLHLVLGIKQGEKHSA
Description: PI 3-Kinase HTRF inhibition assay, PI3K γ. As to conditions: in vitro.

For a further assay, the target named is T4, PI3K δ (Homo sapiens, UniProt O00329).
T4 construct: purchased Upstate
T4 sequence (O00329 whole entry): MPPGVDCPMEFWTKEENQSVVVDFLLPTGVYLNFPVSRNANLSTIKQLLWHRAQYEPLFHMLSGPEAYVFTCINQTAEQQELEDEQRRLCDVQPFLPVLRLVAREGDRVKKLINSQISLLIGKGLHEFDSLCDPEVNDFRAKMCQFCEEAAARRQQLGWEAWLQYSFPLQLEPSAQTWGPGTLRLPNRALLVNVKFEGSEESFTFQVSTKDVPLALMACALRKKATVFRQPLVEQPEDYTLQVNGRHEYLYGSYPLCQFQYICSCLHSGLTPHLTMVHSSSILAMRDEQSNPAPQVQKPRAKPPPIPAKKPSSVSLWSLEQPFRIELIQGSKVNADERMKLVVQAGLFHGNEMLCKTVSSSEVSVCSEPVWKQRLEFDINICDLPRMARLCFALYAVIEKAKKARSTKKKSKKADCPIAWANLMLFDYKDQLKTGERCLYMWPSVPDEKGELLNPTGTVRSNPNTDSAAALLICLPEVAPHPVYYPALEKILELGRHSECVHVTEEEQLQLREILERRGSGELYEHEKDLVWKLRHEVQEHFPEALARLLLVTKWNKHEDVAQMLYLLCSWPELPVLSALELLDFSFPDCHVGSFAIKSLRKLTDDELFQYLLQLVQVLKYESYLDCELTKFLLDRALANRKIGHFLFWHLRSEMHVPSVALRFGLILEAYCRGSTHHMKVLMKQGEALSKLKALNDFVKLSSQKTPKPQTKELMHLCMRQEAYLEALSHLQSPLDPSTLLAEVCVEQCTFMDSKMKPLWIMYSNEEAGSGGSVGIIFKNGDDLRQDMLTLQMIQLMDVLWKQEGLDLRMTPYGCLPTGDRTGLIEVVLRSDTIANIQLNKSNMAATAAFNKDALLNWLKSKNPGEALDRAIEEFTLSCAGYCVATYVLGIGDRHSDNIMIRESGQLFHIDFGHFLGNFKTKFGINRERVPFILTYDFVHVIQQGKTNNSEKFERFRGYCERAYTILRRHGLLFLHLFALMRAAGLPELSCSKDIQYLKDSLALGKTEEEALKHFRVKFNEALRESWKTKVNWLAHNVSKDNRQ
T4 sequence (P27986 whole entry partner): as the sequence (P27986 whole entry partner) above
Nature of the assay: PI 3-Kinase HTRF inhibition assay, PI3K δ. To be noted: in vitro; read-out: PI3K δ IC50. How it is done:
as §1

Molecules are shown by their SMILES. Some results are limits rather than exact numbers.

T1 sequence (P42338 whole entry): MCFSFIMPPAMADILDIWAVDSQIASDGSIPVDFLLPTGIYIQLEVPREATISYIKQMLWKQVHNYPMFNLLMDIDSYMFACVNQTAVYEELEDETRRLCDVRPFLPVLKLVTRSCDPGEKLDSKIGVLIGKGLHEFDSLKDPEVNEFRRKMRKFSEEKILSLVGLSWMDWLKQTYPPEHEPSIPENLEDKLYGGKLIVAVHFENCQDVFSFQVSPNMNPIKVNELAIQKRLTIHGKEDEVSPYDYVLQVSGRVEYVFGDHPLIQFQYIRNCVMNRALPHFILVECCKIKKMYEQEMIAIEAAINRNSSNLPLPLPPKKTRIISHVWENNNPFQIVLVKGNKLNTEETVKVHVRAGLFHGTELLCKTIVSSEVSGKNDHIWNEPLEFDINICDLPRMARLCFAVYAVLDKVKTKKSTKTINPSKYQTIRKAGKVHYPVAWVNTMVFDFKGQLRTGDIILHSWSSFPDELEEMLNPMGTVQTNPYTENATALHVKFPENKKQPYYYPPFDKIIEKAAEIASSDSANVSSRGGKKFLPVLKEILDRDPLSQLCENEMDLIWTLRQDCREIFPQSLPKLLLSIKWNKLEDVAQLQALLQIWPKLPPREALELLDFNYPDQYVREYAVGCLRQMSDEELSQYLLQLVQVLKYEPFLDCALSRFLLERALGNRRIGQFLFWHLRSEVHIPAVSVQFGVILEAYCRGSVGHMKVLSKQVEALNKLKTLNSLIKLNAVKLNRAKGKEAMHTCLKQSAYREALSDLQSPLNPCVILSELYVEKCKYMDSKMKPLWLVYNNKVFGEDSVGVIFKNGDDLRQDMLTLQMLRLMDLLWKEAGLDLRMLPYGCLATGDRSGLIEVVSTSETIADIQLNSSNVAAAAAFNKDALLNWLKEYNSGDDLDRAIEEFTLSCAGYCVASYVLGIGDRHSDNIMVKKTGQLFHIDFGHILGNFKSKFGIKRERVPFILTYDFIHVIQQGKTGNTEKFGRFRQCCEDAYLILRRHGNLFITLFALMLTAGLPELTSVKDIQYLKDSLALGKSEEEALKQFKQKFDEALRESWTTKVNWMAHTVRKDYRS
T1 sequence (P27986 whole entry partner): as the sequence (P27986 whole entry partner) above

With `C[C@@H]1COCCN1c1cnc2ccc(-c3ccc4oc(N)nc4c3)nc2n1` [Compound 14], the half-maximal inhibitory concentration (IC50) against PI3K β was less than 10 µM; on PI3K α it was less than 0.1 µM; at PI3K γ it was less than 0.1 µM; at PI3K δ, less than 10 µM.
`CC(C)N1CCN(C2CN(c3cnc4ccc(-c5ccc6oc(N)nc6c5)nc4n3)C2)CC1` [Compound 77]: the IC50 against PI3K β is greater than 10 µM; at PI3K α, less than 10 µM; against PI3K γ, greater than 10 µM; on PI3K δ it was greater than 10 µM.
On to `CCN1CCN(C2CN(c3cnc4ccc(-c5ccc6nc(N)[nH]c6c5)nc4c3)C2)CC1` [Compound 87], for which the IC50 was greater than 10 µM at PI3K β, less than 0.1 µM on PI3K α, greater than 10 µM on PI3K γ and greater than 10 µM on PI3K δ.
In the case of `CCN1CCN(C2CN(c3cnc4ccc(-c5ccc6oc(N)nc6c5)nc4c3)C2)CC1` [Compound 75], the IC50 against PI3K β was less than 1 µM; on PI3K α it was less than 0.1 µM; against PI3K γ, less than 10 µM; at PI3K δ, less than 1 µM.
Take `C[C@H]1CN(c2cnc3ccc(-c4ccc5oc(N)nc5c4)nc3n2)CCN1` [Compound 1]: the IC50 against PI3K β is less than 0.1 µM; on PI3K α, less than 1 µM; against PI3K γ, less than 10 µM; on PI3K δ, less than 10 µM.
Turning to `C[C@H]1COCCN1C1CN(c2cnc3ccc(-c4ccc5oc(N)nc5c4)nc3n2)C1` [Compound 61], the IC50 was greater than 10 µM against PI3K β, less than 0.1 µM on PI3K α, less than 10 µM against PI3K γ and less than 10 µM on PI3K δ.
Regarding `Nc1nc2cc(-c3ccc4ncc(N5CCNC(=O)C5)nc4n3)ccc2o1` [Compound 29], the IC50 against PI3K β was less than 1 µM; on PI3K α, less than 0.1 µM; on PI3K γ it was less than 0.1 µM; at PI3K δ, less than 10 µM.
`Cc1nccn1C1CN(c2cnc3ccc(-c4ccc5oc(N)nc5c4)nc3n2)C1` [Compound 50]: the half-inhibitory concentration (IC50) on PI3K β was less than 10 µM; on PI3K α, less than 0.1 µM; against PI3K γ, less than 10 µM; on PI3K δ it was less than 10 µM.
`NCC(=O)N1CCN(c2cnc3ccc(-c4ccc5oc(N)nc5c4)nc3c2)CC1` [Compound 37]: the half-inhibitory concentration (IC50) against PI3K β is less than 1 µM; on PI3K α, less than 0.1 µM; at PI3K γ, less than 1 µM; on PI3K δ it was less than 1 µM.
For `CC(C)N1CCN(C2CN(c3cnc4ccc(-c5ccc6nc(N)[nH]c6c5)nc4c3)C2)CC1` [Compound 85], the half-maximal inhibitory concentration (IC50) is greater than 10 µM against PI3K β, less than 0.1 µM on PI3K α, greater than 10 µM on PI3K γ and greater than 10 µM on PI3K δ.
`CN1CCN(C2CN(c3ccc4ncc(-c5ccc6oc(N)nc6c5)cc4n3)C2)CC1` [Compound 84]: the IC50 was greater than 10 µM on PI3K β, less than 10 µM on PI3K α, greater than 10 µM against PI3K γ and greater than 10 µM on PI3K δ.
Take `Nc1nc2cc(-c3ccc4ncc(N5CCN(C(=O)C6(N)CC6)CC5)nc4n3)ccc2o1` [Compound 41]: the half-maximal inhibitory concentration (IC50) on PI3K α and against PI3K γ was less than 0.1 µM in each case.
On to `CC(C)(N)C(=O)N1CCN(c2cnc3ccc(-c4ccc5oc(N)nc5c4)nc3c2)CC1` [Compound 43, 2-amino-1-(4-(6-(2-aminobenzo[d]oxazol-5-yl)-1,5-naphthyridin-3-yl)piperazin-1-yl)-2-methylpropan-1-one], for which the IC50 is less than 0.1 µM at PI3K α, less than 1 µM against PI3K γ and less than 1 µM on PI3K δ.
For the molecule `CC(C)N1CCN(C2CN(c3cnc4ccc(-c5ccc6oc(N)nc6c5)nc4c3)C2)CC1` [Compound 72, 5-(7-(3-(4-isopropylpiperazin-1-yl)azetidin-1-yl)-1,5-naphthyridin-2-yl)benzo[d]oxazol-2-amine], the IC50 on PI3K β was less than 1 µM; at PI3K α, less than 0.1 µM; on PI3K δ, less than 1 µM.
For the molecule `CC1(C)CN(C2CN(c3cnc4ccc(-c5ccc6oc(N)nc6c5)nc4n3)C2)CCO1` [Compound 17], the IC50 was greater than 10 µM at PI3K β, less than 1 µM on PI3K α and greater than 10 µM at PI3K δ.

These data come from US9359352B2, “Substituted benzimidazoles as PI3 kinase inhibitors” (Intellikine LLC, priority 2010, dated 2016).
